Test results published in patent US4505916A, “Method for the treatment of psychoneurotic states by administration of derivatives of 2-(4-piperidyl)-1-(4-quinolyl)-ethanone” (Pharmindustrie, priority 1979, dated 1985).

Key:
[1] = target: cerebral receiving sites of the benzodiazepines; assay: Displacement of tritiated Diazepam from its binding site (method of MOHLER et al.); parameters: species or system rat; conditions: displacement of tritiated Diazepam (3H Diazepam) from its binding site
Experimental: The medicaments of the class of benzodiazepines are used as anticonvulsivants, as hypnotics and for the treatment of states of anxiety and of various psychoneurotic states for treatment of warm blooded mammals. The presence of specific receptors of the benzodiazepines in the membranes of the rat's brain has been shown [SQUIRES et al., Nature, 266, (1977), 732] and the degree of affinity of the benzodiazepines for these receptors, which is measured by their aptitude for displacing the tritiated Diazepam from its binding sites, is in good correlation with the pharmacodynamic effects observed on the animal and on man.
I--AFFINITY FOR THE CEREBRAL RECEIVING SITES OF THE BENZODIAZEPINES
The products have been tested according to the method of MOHLER et al, Life Science, 1977, 20, 2101, which is relied on herein.

[2] = test system: ventricular arhythmia caused by aconitine; assay: Aconitine test on the rat (antiarhythmic activity); type: in vivo; conditions: iv
Experimental: The antiarhythmic activity of the compounds of the present invention has been shown with the help of the aconitine test on the rat.
The principle of the technique rests on the induction time of the ventricular arhythmia caused by aconitine which slowly perfused in rats. An antiarhythmic substance retards the appearance of the arhythmia and the delay is proportional to the activity of the molecule.
Groups of 5 male rats are used. An individual anaesthesia is carried out (10% urethane: 1 g/kg/ip) to permit a catheterisation of the vein of the penis. The electrocardiogram is recorded. At the time T=0 the substance studied is injected in the form of an aqueous solution, at the rate of 2.5 ml of solution per kg in 30 seconds. At the time T=90 seconds, that is 1 minute after the end of the injection, the aconitine is perfused at the rate of 20 μg per minute until the appearance of supraventricular extra systoles. The time of perfusion of the aconitine is noted.
The results are expressed by an ED50 which is the dose in mg/kg increasing by 50% the time of perfusion of the aconitine in comparison with the perfusion time of aconitine for the control animals.

[3] = target: cerebral receiving sites of the benzodiazepines; conditions: 3H Diazepam; constant used in the formula for Ki; read-out: KD, constant of affinity; cited from earlier work

SMILES | Ki [1] | ED50 [2] | Kd [3]
COc1ccc2nc(-c3ccccc3)cc(CCC3CCNCC3)c2c1 [Example 25, 6-methoxy-2-phenyl-4-[2-(4-piperidyl)-ethyl]-quinoline] | 11000 nM |  | 
CN1CCC(CCc2cc(-c3ccccc3)nc3ccccc23)CC1 [Example 23, 4-[2-(1-METHYL-4-PIPERIDYL)-ETHYL]-2-PHENYL-QUINOLINE] | 100 nM |  | 
COc1ccc(-c2cc(C(=O)CC3CCNCC3)c3ccccc3n2)cc1 [Example 9, 1-[2-(4-methoxy-phenyl)-4-quinolyl]-2-(4-piperidyl)ethanone] | 5000 nM |  | 
c1ccc2c(CCC3CCNCC3)ccnc2c1 [Example 24, 4-[2-(4-piperidyl)-ethyl]-quinoline] | 13000 nM |  | 
O=C(CC1CCNCC1)c1cc(-c2ccc(F)cc2)nc2ccccc12 [Example 6, 1-[2-(4-fluoro-phenyl)-4-quinolyl]-2-(4-piperidyl)-ethanone] | 8000 nM |  | 
c1ccc(-c2cc(CCC3CCNCC3)c3ccccc3n2)cc1 [Example 16, 2-phenyl-4-[2-(4-piperidyl)-ethyl]-quinoline] | 200 nM | 1.3 mg/kg | 
CN1C(=O)CN=C(c2ccccc2)c2cc(Cl)ccc21 [^3 H Diazepam] |  |  | 2.74 nM
Clc1ccc(-c2cc(CCC3CCNCC3)c3ccccc3n2)cc1 [Example 17, 2-(4-chloro-phenyl)-4-[2-(4-piperidyl)-ethyl]-quinoline] | 400 nM |  | 
Cc1ccc(-c2cc(C(=O)CC3CCNCC3)c3ccccc3n2)cc1 [Example 8, 1-[2-(4-METHYL-PHENYL)-4-QUINOLYL]-2-(4-PIPERIDYL)-ETHANONE] | 1600 nM |  | 
COc1ccc2nccc(CCC3CCNCC3)c2c1 [Example 13, 6-METHOXY-4-[2-(4-PIPERIDYL)-ETHYL]-QUINOLINE] | 7000 nM |  | 
C=C[C@@H]1CNCC[C@H]1CCc1ccnc2ccc(OC)cc12 [Example 26, 6-methoxy-4-{2-[3(S)-ethenyl-4(R)-piperidyl]-ethyl}-quinoline] |  | 2.6 mg/kg | 
O=C(CC1CCNCC1)c1cc(-c2ccc(Cl)cc2)nc2ccccc12 [Example 7, 1-[2-(4-CHLORO-PHENYL)-4-QUINOLYL]-2-(4-PIPERIDYL)-ETHANONE] | 4500 nM |  | 
O=C(CC1CCNCC1)c1cc(-c2ccccc2)nc2ccccc12 [Example 5, 1-(2-phenyl-4-quinolyl)-2-(4-piperidyl)-ethanone] | 500 nM |  | 
C=C[C@H]1CNCC[C@H]1CC(=O)c1cc(-c2ccccc2)nc2ccccc12 [Example 11, 2-[3(R)-ethenyl-4(S)-piperidyl]-1-(2-phenyl-4-quinolyl)ethanone] | 2000 nM |  | 
COc1ccc(-c2cc(CCC3CCNCC3)c3ccccc3n2)cc1 [Example 18, 2-(4-METHOXY-PHENYL)-4-[2-(4-PIPERIDYL)-ETHYL]-QUINOLINE] | 1300 nM |  | 
C=C[C@H]1CNCC[C@H]1CCc1ccnc2ccc(OC)cc12 [Example 14, 6-METHOXY-4-{2-[3(R)-ETHENYL-4(R)-PIPERIDYL]-ETHYL}-QUINOLINE] | 5000 nM | 5 mg/kg | 
c1ccc(CCN2CCC(CCc3cc(-c4ccccc4)nc4ccccc34)CC2)cc1 [Example 22, 4-{2-[1-(2-phenyl-ethyl)-4-piperidyl]-ethyl}-2-phenyl-quinoline] | 500 nM |  | 
Cc1ccc(-c2cc(CCC3CCNCC3)c3ccccc3n2)cc1 [Example 19, 2-(4-METHYL-PHENYL)-4-[2-(4-PIPERIDYL)-ETHYL]-QUINOLINE] | 600 nM |  | 
C=C[C@H]1CNCC[C@H]1CC(=O)c1ccnc2ccc(OC)cc12 [Example 3, 2-[3(R)-ethenyl-4(S)-piperidyl]-1-(6-methoxy-4-quinolyl)-ethanone] | 16000 nM |  | 
